Results from patent US20260207718A1, “METHODS FOR TREATING LATE ONSET POMPE DISEASE IN PEDIATRIC PATIENTS” (Amicus Therapeutics, Inc., priority 2022, published 2026).

Legend:
pediatric LOPD patient = details: (failed); 20 mg/kg Q2W (M)
Gaa KO mice [1] = assay: Single fiber analysis (LAMP1/LC3) of muscle fibers from Gaa KO mice; assay type: in vivo
Source text: FIG. 17 depicts co-immunofluorescent staining of LAMP1 (green) (see for example, “B”) and LC3 (red) (see, for example, “A”) in single fibers isolated from the white gastrocnemius of Gaa KO mice treated with a vehicle, alglucosidase alfa, or ATB200. “C” depicts clearance of autophagic debris and absence of enlarged lysosome. A minimum of 30 fibers were examined from each animal.
As a result, a significant portion of muscle fibers analyzed (36-60%) from ATB200-treated mice appeared normal or near-normal.

CIMPR = CIMPR (Homo sapiens, UniProt P11717); assay: CIMPR affinity chromatography (bound vs unbound rhGAA by GAA activity); assay type: binding
Source text: Multiple batches of the rhGAA according to the disclosure were produced in shake flasks and in perfusion bioreactors using CHO cell line GA-ATB200, the product of which is referred to as “ATB200.” Weak anion exchange (“WAX”) liquid chromatography was used to fractionate ATB200 rhGAA according to terminal phosphate and sialic acid. Elution profiles were generated by eluting the ERT with increasing amount of salt. The profiles were monitored by UV (A280 nm).
To evaluate the ability of the conventional rhGAAs in MYOZYME® and LUMIZYME® to interact with the CIMPR, the two conventional rhGAA preparations were injected onto a CIMPR affinity column (which binds rhGAA having M6P groups) and the flow through collected. The bound material was eluted with a free M6 gradient. Fractions were collected in 96-well plate and GAA activity assayed by 4MU-α-glucosidase substrate. The relative amounts of unbound (flow through) and bound (M6P eluted) rhGAA were determined based on GAA activity and reported as the fraction of total enzyme. […] Indeed, only 27% of the rhGAA in MYOZYME® and 22% of the rhGAA in LUMIZYME® contained M6P that can be productive to target it to the CIMPR on muscle cells.

[2] = tested on: LOPD population (ERT-naïve and ERT-experienced); assay: Indirect treatment comparison, multi-level network meta regression (ML-NMR); set-up: species or system human; details: base-case scenario, sensitivity analysis (RCT data only)
Procedure: Moreover, a comparison of three randomized clinical trials (LOTS: alglucosidase alfa vs placebo; COMET: avalglucosidase alfa vs alglucosidase alfa; and PROPEL: cipaglucosidase alfa/miglustat vs alglucosidase alfa) share 6 MWD and % predicted FVC as key primary or secondary endpoints. Using patient-level data from the PROPEL randomized clinical trial (RCT) plus aggregate published data from other RCTs, Phase I/II and open label extension trials, a multi-level network meta-regression was conducted, adjusting for various baseline covariates including previous ERT duration. The base case scenario had covariates resembling the PROPEL population (naïve and ERT-experienced) and analyzed 6 MWD and FVC change from baseline at 52 weeks. […]
A systematic literature review (SLR) was conducted to identify relevant published clinical studies of ERTs in LOPD. Outcomes assessed were change from baseline in 6-minute walking distance (6 MWD) (m) and in forced vital capacity (FVC; % predicted) at week 52, acknowledged by clinicians, HTA agencies and payers as key LOPD trial endpoints. […]
A base-case scenario was evaluated in which all covariates were set to the target population of the PROPEL trial. […]

[3] = tested on: adult subjects with late-onset Pompe disease (LOPD); assay: ATB200-03 (PROPEL) phase 3 trial; details: for absolute decline in percent-predicted FVC: 52 weeks; for mean change in total GSGC score: baseline to week 52, overall population
Source text: (§1) Efficacy assessments (i.e., functional assessments) included evaluation of ambulatory function (6 MWT), motor function tests (Gait, Stair, Gower, and Chair maneuver (GSGC) test and Timed Up and Go (TUG) test), muscle strength (manual muscle testing and quantitative muscle testing), and pulmonary function tests (FVC, SVC, MIP, MEP, and SNIP).
(§2) The primary efficacy endpoint was the change from baseline to Week 52 in 6 MWD.
(§3) Key secondary efficacy endpoints in a pre-specified hierarchical order of importance were as follows. These secondary endpoints were analyzed using analysis of covariance (ANCOVA) model with last observation carried forward (ITT LOCF). • change from baseline to Week 52 in sitting FVC (% predicted) • change from baseline to Week 52 in the manual muscle test score for the lower extremities • change from baseline to Week 52 in the total score for the PROMIS—physical function • change from baseline to Week 52 in the total score for the PROMIS—fatigue • change from baseline to Week 52 in GSGC total score
(§4) PROPEL was a 52-week, double-blind randomized global study designed to assess the efficacy, safety and tolerability of AT-GAA compared to the current standard of care, alglucosidase alfa, an enzyme replacement therapy (ERT).
(§5) Patients enrolled in PROPEL were randomized 2:1 so that for every two patients randomized to be treated with AT-GAA, one was randomized to be treated with alglucosidase alfa.

Gaa KO mice [4] = assay: Co-administration of ATB200 and miglustat in Gaa KO mice (tissue glycogen, LAMP1, LC3, dysferlin); assay type: in vivo; details: FIG. 15B
Procedure: The therapeutic effects of ATB200 and miglustat were evaluated and compared against those of Alglucosidase alfa in Gaa KO mice. For the study, male Gaa KO (3- to 4-month old) and age-matched wild-type (WT) mice were used. Alglucosidase alfa was administered via bolus tail vein intravenous (IV) injection. In the co-administration regimen, miglustat was administered via oral gavage (PO) 30 minutes prior to the IV injection of ATB200. Treatment was given biweekly. Treated mice were sacrificed after 14 days from the last administration and various tissues were collected for further analysis. Table 11 summarizes the study design:
Tissue glycogen content in tissues samples was determined using amyloglucosidase digestion, as discussed above.
Tissue samples were also analyzed for biomarker changes following the methods discussed in: Khanna R, et al. (2012), “The pharmacological chaperone AT2220 increases recombinant human acid α-glucosidase uptake and glycogen reduction in a mouse model of Pompe disease,” Plos One 7(7): e40776; and Khanna, R et al. (2014), “The Pharmacological Chaperone AT2220 Increases the Specific Activity and Lysosomal Delivery of Mutant Acid α-Glucosidase, and Promotes Glycogen Reduction in a Transgenic Mouse Model of Pompe Disease,” PLOS ONE 9(7): e102092.

[5] = tested on: subjects with late-onset Pompe disease (LOPD); details: cited from earlier work
[6] = tested on: adult subjects with late-onset Pompe disease (LOPD); details: in vivo
Source text: as §1, §2, §3, §4, §5

Sequence of CIMPR (P11717 41-2491, species assumed): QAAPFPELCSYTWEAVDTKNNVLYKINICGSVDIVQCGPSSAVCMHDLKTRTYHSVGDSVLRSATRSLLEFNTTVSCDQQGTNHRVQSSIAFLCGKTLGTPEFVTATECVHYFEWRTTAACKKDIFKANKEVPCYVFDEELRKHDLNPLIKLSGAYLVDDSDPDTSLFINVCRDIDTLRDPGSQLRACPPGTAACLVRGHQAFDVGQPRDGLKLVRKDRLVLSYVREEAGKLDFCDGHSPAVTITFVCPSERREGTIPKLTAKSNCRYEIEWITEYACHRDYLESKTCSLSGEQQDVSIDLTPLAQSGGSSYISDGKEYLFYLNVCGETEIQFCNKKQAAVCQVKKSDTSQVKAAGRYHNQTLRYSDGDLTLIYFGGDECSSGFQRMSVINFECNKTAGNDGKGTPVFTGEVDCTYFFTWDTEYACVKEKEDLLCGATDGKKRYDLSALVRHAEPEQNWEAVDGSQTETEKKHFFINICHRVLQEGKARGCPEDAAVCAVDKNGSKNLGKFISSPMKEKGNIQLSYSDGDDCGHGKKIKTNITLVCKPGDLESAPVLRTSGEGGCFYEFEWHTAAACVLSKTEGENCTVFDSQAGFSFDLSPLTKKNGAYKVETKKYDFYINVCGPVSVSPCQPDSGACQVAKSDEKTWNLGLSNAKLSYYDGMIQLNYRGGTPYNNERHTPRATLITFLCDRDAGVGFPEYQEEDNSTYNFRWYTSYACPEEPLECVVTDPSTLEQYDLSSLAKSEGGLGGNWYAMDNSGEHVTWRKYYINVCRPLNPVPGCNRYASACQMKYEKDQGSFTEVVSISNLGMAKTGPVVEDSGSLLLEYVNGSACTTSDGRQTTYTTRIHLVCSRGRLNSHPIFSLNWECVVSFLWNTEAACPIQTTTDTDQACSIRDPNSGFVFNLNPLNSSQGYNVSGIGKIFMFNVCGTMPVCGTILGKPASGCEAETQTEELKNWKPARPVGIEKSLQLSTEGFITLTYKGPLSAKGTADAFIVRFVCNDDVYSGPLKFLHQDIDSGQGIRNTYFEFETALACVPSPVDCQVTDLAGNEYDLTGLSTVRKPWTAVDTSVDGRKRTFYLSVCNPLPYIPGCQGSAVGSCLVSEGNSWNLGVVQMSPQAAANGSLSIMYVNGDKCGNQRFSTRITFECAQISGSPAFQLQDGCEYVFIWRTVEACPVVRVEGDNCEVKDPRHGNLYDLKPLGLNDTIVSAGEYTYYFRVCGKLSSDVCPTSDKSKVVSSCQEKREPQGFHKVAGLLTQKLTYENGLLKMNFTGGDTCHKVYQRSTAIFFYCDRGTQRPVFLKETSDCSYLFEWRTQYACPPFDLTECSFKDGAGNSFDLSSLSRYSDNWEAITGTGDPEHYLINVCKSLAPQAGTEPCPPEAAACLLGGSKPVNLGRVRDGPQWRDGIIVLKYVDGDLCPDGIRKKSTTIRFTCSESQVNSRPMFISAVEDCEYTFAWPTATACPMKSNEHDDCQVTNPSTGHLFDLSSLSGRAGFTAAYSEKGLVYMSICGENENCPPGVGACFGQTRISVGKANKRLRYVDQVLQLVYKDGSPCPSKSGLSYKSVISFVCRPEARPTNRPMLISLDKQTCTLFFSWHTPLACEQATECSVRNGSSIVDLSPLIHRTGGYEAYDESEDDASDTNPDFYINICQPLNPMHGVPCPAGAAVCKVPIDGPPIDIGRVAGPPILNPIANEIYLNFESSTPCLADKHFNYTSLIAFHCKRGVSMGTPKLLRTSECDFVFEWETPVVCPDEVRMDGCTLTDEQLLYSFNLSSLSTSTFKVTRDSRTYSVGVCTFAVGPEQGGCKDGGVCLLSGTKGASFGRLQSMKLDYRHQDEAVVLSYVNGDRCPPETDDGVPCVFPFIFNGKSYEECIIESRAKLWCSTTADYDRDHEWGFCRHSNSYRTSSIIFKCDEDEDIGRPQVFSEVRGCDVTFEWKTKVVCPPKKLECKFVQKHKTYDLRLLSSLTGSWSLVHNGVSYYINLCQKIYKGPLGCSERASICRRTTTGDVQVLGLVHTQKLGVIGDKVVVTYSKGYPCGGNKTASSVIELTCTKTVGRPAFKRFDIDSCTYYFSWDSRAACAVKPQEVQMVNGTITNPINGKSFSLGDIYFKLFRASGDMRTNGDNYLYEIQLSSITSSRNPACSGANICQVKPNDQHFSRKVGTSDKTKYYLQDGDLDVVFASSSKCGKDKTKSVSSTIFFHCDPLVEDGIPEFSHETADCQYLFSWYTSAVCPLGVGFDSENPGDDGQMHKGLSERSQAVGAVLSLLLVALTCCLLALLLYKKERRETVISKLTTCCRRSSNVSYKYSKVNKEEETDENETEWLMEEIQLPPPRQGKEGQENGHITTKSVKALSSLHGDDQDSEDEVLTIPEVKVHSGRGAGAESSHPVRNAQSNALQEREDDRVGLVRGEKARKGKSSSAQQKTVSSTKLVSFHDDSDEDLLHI

MYOZYME®: conventional rhGAA product containing alglucosidase alfa (Sanofi Genzyme)
6MWT (pediatric LOPD patient): 44.2 m
lysosome size and autophagic buildup compared to vehicle-treated mice (Gaa KO mice [1]; FIG. 17): did not show any significant difference
rhGAA that bound to the CIMPR (CIMPR): 27%
rhGAA that did not bind to the CIMPR (fraction of total enzyme) (CIMPR): 73%

alglucosidase alfa
relative effect for 6MWT and FVC [2]: numerically favourable versus placebo
absolute decline in percent-predicted FVC ([3]; ERT switch patients): 4.0%
FVC, CFBL at Week 52 ([3]; ERT switch population): −4.0 % predicted
6MWD, CFBL at Week 52 ([3]; ERT switch population (n=95)): 0.0 m
6MWD, CFBL at Week 52 ([3]; ERT treatment naive population): 38 m
FVC, CFBL at Week 52 ([3]; ERT treatment naive population): −3.6 % predicted
6MWD, CFBL at Week 52 ([3]; ERT treatment naive population, listed as Alglucosidase alfa): +38.3 m
mean urinary Glc4 concentration ([3]; ERT-experienced patients, Week 52 (baseline 4.6 ATB200/miglustat, 7.2 alglucosidase alfa with placebo)): 9.1 mmol/mol
mean change in CK (creatine kinase) ([3]; after 52 weeks): +15.6%
mean change (SD) in MMT score for lower extremities ([3]; baseline to week 52): 0.9 (2.58)
mean change in total GSGC score [3]: worsening
mean change in total GSGC score ([3]; listed as alglucosidase alfa and placebo): 0.77 (1.8)
absolute decline in percent-predicted FVC ([3]; combined population): 4.0%
mean change of urine Hex-4 ([3]; combined population, after 52 weeks): +11.0%
6MWD, CFBL at Week 52 ([3]; overall ERT switch and ERT naïve population): 7 m
6MWD, CFBL at Week 52 ([3]; overall ERT switch and ERT naïve population, listed as Alglucosidase alfa): +7.2 m
FVC, CFBL at Week 52 ([3]; overall population): −4.0 % predicted
LC3 II level (western blot) / effect on autophagy (Gaa KO mice [4]): modest
subjects who did not show an initial improvement during treatment ([5]; 368 subjects with LOPD from published studies): > 30%
duration of improvements in initial responders ([5]; longer-term studies): approximately 2 years
Fibers with Autophagy Buildup (Gaa KO mice [1]): >90%
Fibers with Normal or Near-normal Appearance (Gaa KO mice [1]): <10%
participants with infusion/injection associated reactions (IARs) [6]: 26%
patients who discontinued treatment due to an adverse event [6]: 2.6%
